According to patent publication US10034886B2, “GLP-1 receptor modulators” (Celgene International II SÀRL, priority 2014, dated 2018):

Biological target: T1, GLP-1R (Homo sapiens, UniProt P43220)
T1 construct: host or cells: GLP-1R CRE-bla CHO-K1 cells
Test: EC20 GLP-1(9-36) PAM cAMP assay: dose response of compound in the presence of fixed concentration of GLP-1(9-36)
Format: cell-based
Conditions: GLP-1R CRE-bla CHO-K1 cells, compound dose response with fixed concentration of GLP-1(9-36), read-out: EC20 GLP-1(9-36) PAM EC50
Summary of the method: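 GLP-1R CRE-bla CHO-K1 cells treated 30 min at 37 °C with 12-point compound dose response plus fixed EC20 GLP-1(9-36), with IBMX, in HBSS/HEPES/0.1% BSA pH 7.4. Total cAMP measured by luminescent detection against standard curve; EC50 and Emax from non-linear regression.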

T1 sequence (P43220 24-463): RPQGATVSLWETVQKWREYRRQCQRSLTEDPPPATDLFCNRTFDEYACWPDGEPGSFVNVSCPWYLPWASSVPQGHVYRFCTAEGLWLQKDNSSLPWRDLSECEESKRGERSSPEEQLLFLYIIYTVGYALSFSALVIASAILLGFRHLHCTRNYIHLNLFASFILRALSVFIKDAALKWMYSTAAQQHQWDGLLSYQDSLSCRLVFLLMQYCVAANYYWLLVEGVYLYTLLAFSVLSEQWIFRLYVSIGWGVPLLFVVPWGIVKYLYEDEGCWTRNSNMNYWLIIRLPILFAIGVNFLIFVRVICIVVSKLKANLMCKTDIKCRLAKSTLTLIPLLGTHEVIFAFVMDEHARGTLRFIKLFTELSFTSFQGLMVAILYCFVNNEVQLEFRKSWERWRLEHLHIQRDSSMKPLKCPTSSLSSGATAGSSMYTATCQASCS
T1 sequence (P01275 100-127 partner limits assumed): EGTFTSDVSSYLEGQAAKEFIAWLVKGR

EC50	SMILES
< 0.8 µM	Cc1cc(-c2ccc(-c3cnc(-c4ccc(C[C@H](NC(=O)c5ccc(C(C)(C)C)s5)C(=O)N5CC(C(=O)O)C5)cc4)nc3)c(F)c2)ccc1C(F)(F)F [Compound 1225]
< 0.8 µM	CC(C)(C)c1ccc(C(=O)N[C@@H](Cc2ccc(-c3ncc(N4CCC(c5ccc(C(F)(F)F)cc5)CC4)cn3)cc2)C(=O)N2CC(C(=O)O)C2)s1 [Compound 1481]
< 0.8 µM	Cc1cccc(C)c1-c1ccc(-c2cnc(-c3ccc(C[C@H](NC(=O)c4ccc(C(C)(C)C)s4)C(=O)N4CC(C(=O)O)C4)cc3)nc2)c(F)c1 [Compound 1205]
< 0.8 µM	CC[C@H]1CC[C@H](c2ccc(-c3cnc(-c4ccc(C[C@H](NC(=O)c5cnc(C(C)(C)C)nc5)C(=O)O)cc4)nc3)cc2)CC1 [Compound 1368]
0.8 to 2.5 µM	COc1ccc(C2CCN(c3cnc(-c4ccc(CC(NC(=O)c5ccc(C(C)(C)C)s5)C(=O)N5CC(C(=O)O)C5)cc4)nc3)CC2)c(C)c1 (stereo not drawn) [Compound 1483]
< 0.8 µM	C[C@@H](NC(=O)[C@H](Cc1ccc(-c2ncc(-c3ccc(C4CCC(C)(C)CC4)cc3)cn2)cc1)NC(=O)c1ccc(C(C)(C)C)s1)C(=O)O [Compound 1316]
< 0.8 µM	CCC[C@H]1CC[C@H](C2CCN(c3cnc(-c4ccc(C[C@H](NC(=O)c5ccc(C(C)(C)C)s5)C(=O)N5CCC[C@H]5C(=O)O)cc4)nc3)CC2)CC1 [Compound 1419]
< 0.8 µM	CCCc1ccc(-c2ccc(-c3cnc(-c4ccc(C[C@H](NC(=O)c5ccc(C(C)C)cc5)C(=O)N5CC(C(=O)O)C5)cc4)nc3)c(F)c2)cc1 [Compound 1408]
0.8 to 2.5 µM	CCC[C@H]1CC[C@H](C2CCN(c3cnc(-c4ccc(C[C@H](NC(=O)c5ccc(C6CC6)cn5)C(=O)N5CC(C(=O)O)C5)cc4)nc3)CC2)CC1 [Compound 1538]
2.5 to 5 µM	CCCc1ccc(C2CN(c3cnc(-c4ccc(C[C@H](NC(=O)c5ccc(C(C)(C)C)s5)C(=O)N5CC(C(=O)O)C5)cc4)nc3)C2)cc1 [Compound 1502]
< 0.8 µM	CC(C)c1ccc(-c2ccc(-c3cnc(-c4ccc(C[C@H](NC(=O)c5ccc(C(C)(C)C)s5)C(=O)N5CC(C(=O)O)C5)cc4)nc3)c(F)c2)cc1 [Compound 1220]
< 0.8 µM	CCC[C@H]1CC[C@H](C2CCN(c3cnc(-c4ccc(C[C@H](NC(=O)c5cnc(C(C)(C)C)s5)C(=O)N5CC(C(=O)O)C5)cc4)nc3)CC2)CC1 [Compound 1537]
0.8 to 2.5 µM	CC1(C)CCC(c2ccc(-c3cnc(-c4ccc(C[C@H](NC(=O)c5ccc(C(C)(C)C)s5)C(=O)O)cc4)nc3)cc2)CC1 [Compound 1344]

Same assay, conditions: dose response of compound in presence of fixed concentration of GLP-1(9-36), GLP-1R CRE-bla CHO-K1 cells, read-out: EC20 GLP-1(9-36) PAM EC50

SMILES	EC50
CC1(C)CCC(c2ccc(-c3cnc(-c4ccc(C[C@H](NC(=O)c5ccc(C(C)(C)C)s5)C(=O)N5CC(C(=O)O)C5)cc4)nc3)cc2)CC1 [Compound 1088]	< 0.8 µM
CCCCCC(=O)c1ccc(-c2cnc(-c3ccc(C[C@H](NC(=O)c4ccc(C(C)(C)C)s4)C(=O)N4CC[C@H](C(=O)O)C4)cc3)nc2)cc1 [Compound 766]	2.5 to 5 µM
CCCCCCCOc1ccc(-c2cnc(-c3ccc(C[C@H](NC(=O)c4ccc(C(C)(C)C)s4)C(=O)NCC4(C)CNC4)cc3)nc2)cc1 [Compound 986]	0.8 to 2.5 µM
CCCCCCCOc1ccc(-c2cnc(-c3ccc(C[C@H](NC(=O)c4ccc(C(C)(C)C)s4)C(=O)N[C@@H](CC(=O)O)C(=O)NCCOC)cc3)nc2)cc1 [Compound 532]	< 0.8 µM
CCCCCCOc1ccc(-c2cnc(-c3ccc(C[C@H](NC(=O)c4ccc(C(C)(C)C)s4)C(=O)N4CC[C@H](C(=O)O)C4)cc3)nc2)cc1 [Compound 763]	0.8 to 2.5 µM
CCCCCCCOc1ccc(-c2cnc(-c3ccc(C[C@H](NC(=O)c4ccc(C(C)(C)C)s4)C(=O)NC(C(=O)O)C(O)c4ccc(Cl)cc4)cc3)nc2)cc1 (stereo partly drawn) [Compound 901]	0.8 to 2.5 µM
CCCOc1ccc(-c2cnc(-c3ccc(C[C@H](NC(=O)c4ccc(C(C)(C)C)cc4)C(=O)NCCC(=O)O)cc3)nc2)cc1 [Compound 708]	0.8 to 2.5 µM
CCCCCCCOc1ccc(-c2cnc(-c3ccc(C[C@H](NC(=O)c4ccc(C(C)(C)C)s4)C(=O)N4CCC[C@H]4C(=O)NS(C)(=O)=O)cc3)nc2)cc1 [Compound 495]	< 0.8 µM
CCCCCCCOc1ccc(-c2cnc(-c3ccc(C[C@H](NC(=O)c4ccc(C(C)(C)C)s4)C(=O)NC(C(=O)O)C(OC)c4ccccc4)cc3)nc2)cc1 (stereo partly drawn) [Compound 890]	0.8 to 2.5 µM
CCCCCCOc1ccc(-c2cnc(-c3ccc(C[C@H](NC(=O)c4ccc(C(C)(C)C)s4)C(=O)NC(C(=O)O)C(O)c4ccccc4)cc3)nc2)cc1 (stereo partly drawn) [Compound 943]	0.8 to 2.5 µM
CCCCCCCOc1ccc(-c2cnc(-c3ccc(C[C@H](NC(=O)c4ccc(C(C)(C)C)s4)C(=O)NC[C@H]4C[C@H](N)C4)cc3)nc2)cc1 [Compound 879]	2.5 to 5 µM
CCCCCCCOc1ccc(-c2cnc(-c3ccc(C[C@H](NC(=O)c4ccc(C(C)(C)C)cc4)C(=O)N4CC=CC4C(=O)O)cc3)nc2)cc1 (stereo partly drawn) [Compound 563]	< 0.8 µM
CCCCCCCOc1ccc(-c2cnc(-c3ccc(C[C@H](NC(=O)c4ccc(C(C)(C)C)s4)C(=O)N[C@@H](CC(=O)NCC(=O)O)C(=O)O)cc3)nc2)cc1 [Compound 515]	< 0.8 µM
CCCCCCCOc1ccc(-c2cnc(-c3ccc(C[C@H](NC(=O)c4ccc(C(C)(C)C)s4)C(=O)N4C(C(=O)O)CCC4C(=O)O)cc3)nc2)cc1 (stereo partly drawn) [Compound 614]	0.8 to 2.5 µM
CCCCCCNc1ccc(-c2cnc(-c3ccc(C[C@H](NC(=O)c4ccc(C(C)(C)C)cc4)C(=O)N[C@H](C)C(=O)O)cc3)nc2)cc1 [Compound 729]	0.8 to 2.5 µM
CCCCCCCOc1ccc(-c2cnc(-c3ccc(C[C@H](NC(=O)c4ccn(C(C)(C)C)c4)C(=O)N4CC[C@H](C(=O)O)C4)cc3)nc2)cc1 [Compound 1094]	< 0.8 µM
CCCCCCCOc1ccc(-c2cnc(-c3ccc(C[C@H](NC(=O)c4cnc(C(C)(C)C)nc4)C(=O)NC(C(=O)O)C(O)c4ccccc4)cc3)nc2)cc1 (stereo partly drawn) [Compound 953]	0.8 to 2.5 µM
CC(C)(C)c1ccc(C(=O)N[C@@H](Cc2ccc(-c3ncc(-c4ccc(C5CCCC5)cc4)cn3)cc2)C(=O)N2CC(C(=O)O)C2)s1 [Compound 1089]	0.8 to 2.5 µM

SMILES	EC50
CCCCCCCOc1ccc(-c2cnc(-c3ccc(C[C@H](NC(=O)c4ccc(C(C)(C)C)s4)C(=O)NC(C(=O)O)C(O)C(C)C)cc3)nc2)cc1 (stereo partly drawn) [Compound 880]	< 0.8 µM
CCCCCCCOc1ccc(-c2cnc(-c3ccc(C[C@H](NC(=O)c4ccc(C(C)(C)C)s4)C(=O)NCCCN(C)C)cc3)nc2)cc1 [Compound 962]	0.8 to 2.5 µM
CCCOc1ccc(-c2cnc(-c3ccc(C[C@H](NC(=O)c4ccc(C(C)(C)C)s4)C(=O)N4CC[C@H](C(=O)O)C4)cc3)nc2)cc1 [Compound 761]	2.5 to 5 µM
CCCCCCCOc1ccc(-c2cnc(-c3ccc(C[C@H](NC(=O)c4ccc(C(C)(C)C)cc4)C(=O)N[C@@H](CC)C(=O)O)cc3)nc2)cc1 [Compound 499]	< 0.8 µM
CCCCCCCOc1ccc(-c2cnc(-c3ccc(C[C@H](NC(=O)c4ccc(OC(C)C)cc4)C(=O)NC(C(=O)O)C(O)c4ccccc4)cc3)nc2)cc1 (stereo partly drawn) [Compound 950]	0.8 to 2.5 µM
CC(C)(C)CCOc1ccc(-c2cnc(-c3ccc(C[C@H](NC(=O)c4ccc(C(C)(C)C)s4)C(=O)NC(C(=O)O)C(O)c4ccccc4)cc3)nc2)cc1 (stereo partly drawn) [Compound 941]	2.5 to 5 µM
CCCCCCCOc1ccc(-c2cnc(-c3ccc(C[C@H](NC(=O)c4ccc(CCC)cc4)C(=O)N4CC[C@H](C(=O)O)C4)cc3)nc2)cc1 [Compound 853]	0.8 to 2.5 µM
CCCCCCCOc1ccc(-c2cnc(-c3ccc(C[C@H](NC(=O)c4ccc(C(C)(C)C)cc4)C(=O)NCc4ccc(C(=O)O)o4)cc3)nc2)cc1 [Compound 572]	0.8 to 2.5 µM
CCCCCCCOc1ccc(-c2cnc(-c3ccc(C[C@H](NC(=O)c4ccc(C(C)(C)C#N)cc4)C(=O)N4CC[C@H](C(=O)O)C4)cc3)nc2)cc1 [Compound 860]	0.8 to 2.5 µM
CCCCCCCOc1ccc2nc(-c3ccc(C[C@H](NC(=O)c4ccc(C(C)(C)C)cc4)C(=O)N4CC[C@H](C(=O)O)C4)cc3)ccc2c1 [Compound 807]	5 to 10 µM
CCCCCCCOc1ccc(-c2cnc(-c3ccc(C[C@H](NC(=O)c4ccc(C(C)(C)C)nc4)C(=O)N4CC(C(=O)O)C4)cc3)nc2)cc1 [Compound 1117]	0.8 to 2.5 µM
CCCCCCCOc1ccc(-c2cnc(-c3ccc(C[C@H](NC(=O)c4ccc(C(C)(C)C)s4)C(=O)NCCN(C)C)cc3)nc2)cc1 [Compound 385]	5 to 10 µM
CCCCCCCOc1ccc(-c2cnc(-c3ccc(C[C@H](NC(=O)c4ccc(CC)s4)C(=O)N4CCC[C@H]4C(=O)O)cc3)nc2)cc1 [Compound 1072]	0.8 to 2.5 µM
CCCCCCCOc1ccc(-c2cnc(-c3ccc(C[C@H](NC(=O)c4ccc(C(C)(C)C)s4)C(=O)Nc4ccc(C(F)(F)F)cc4)cc3)nc2)cc1 [Compound 965]	5 to 10 µM
C[C@@H](NC(=O)[C@H](Cc1ccc(-c2ncc(-c3ccc(-c4ccccc4)cc3)cn2)cc1)NC(=O)c1ccc(C(C)(C)C)s1)C(=O)O [Compound 741]	2.5 to 5 µM
CCCCCCCc1ccc(-c2cnc(-c3ccc(C[C@H](NC(=O)c4ccc(C(C)(C)C)s4)C(=O)N4CC[C@H](C(=O)O)C4)cc3)nc2)cc1 [Compound 765]	0.8 to 2.5 µM
CCCCCCCOc1ccc(-c2cnc(-c3ccc(C[C@H](NC(=O)c4ccc(C(C)(C)C)s4)C(=O)NCC4CCNCC4)cc3)nc2)cc1 [Compound 463]	5 to 10 µM
CCCCCCCOc1ccc(-c2cnc(-c3ccc(C[C@H](NC(=O)c4ccc(C(C)(C)C)s4)C(=O)N4CC[C@H](C(=O)NS(C)(=O)=O)C4)cc3)nc2)cc1 [Compound 884]	0.8 to 2.5 µM

The remaining lines, values ahead:

EC50	SMILES
0.8 to 2.5 µM	CC(C)(C)c1ccc(C(=O)N[C@@H](Cc2ccc(-c3ncc(-c4ccc(C5CCCC5)cc4)cn3)cc2)C(=O)N2CCC[C@H]2C(=O)O)s1 [Compound 1123]
< 0.8 µM	CC(C)(C)c1ccc(C(=O)N[C@@H](Cc2ccc(-c3ncc(-c4ccc(-c5ccccc5F)cc4F)cn3)cc2)C(=O)N2CC(C(=O)O)C2)s1 [Compound 1194]
